Like-named read-outs stand apart in the source and are kept apart here. Square brackets hold non-standard residues; d marks the D form. Peptide text beside a SMILES is read from it. dPhe(4-Cl) = N[C@H](Cc1ccc(Cl)cc1)C(=O)O; dPhe(4-F) = N[C@H](Cc1ccc(F)cc1)C(=O)O; d2Nal = N[C@H](Cc1ccc2ccccc2c1)C(=O)O; Hyp = O=C(O)[C@@H]1C[C@@H](O)CN1; 2Thi = N[C@@H](Cc1cccs1)C(=O)O; d2Thi = N[C@H](Cc1cccs1)C(=O)O
Assays:
[1] = test system: isolated guinea pig ileum; assay type: cell-based; set-up: pA2 /GPI: activity class: scale not given here; conditions: isolated guinea pig ileum; for pA2 /GPI: activity class: not quantitated
Experimental: (§1) The bradykinin antagonists were assayed on isolated rat uterus in natural or induced estrus and on guinea pig ileum, according to the commonly accepted assay methods for bradykinin and related kinins as described by Trautschold (Handbook of Expt. Pharmacol. Vol 25, Springer Verlag, pp. 53-55, 1970) for inhibition of the myotropic activity of bradykinin. The inhibition potencies, as determined according to the commonly accepted manner described by Schild for antagonists of biologically active compounds (Br. J. Pharmacol. 2:189, 1947), and expressed as pA2 values are determined on isolated rat uterus (RUT) and isolated guinea pig ileum (GPI). In the assays, a dose-response curve is determined for the reference substance bradykinin. The dose of bradykinin which produced a half maximal contraction of tissue is the ED50 dose. An amount of bradykinin equivalent to twice the ED50 dose is administered to the tissue 30 seconds after the start of incubation of the tissue with a dose of antagonist. Doses of antagonist are increased in this protocol until pre-incubation with a dose of antagonist reduces the contraction in response to the double ED50 dose of bradykinin to response of a single ED50 dose of bradykinin. The pA2 value represents the negative logarithm of the molar concentration of antagonist necessary to reduce the response of a double ED50 dose of bradykinin to that of an ED50 dose. One unit of pA2 value represents an order of magnitude change in potency. For comparison, the negative log of the dose of BK, the dose which causes half maximal contraction of the tissues, is commonly known as the pD2 value. The pD2 value for bradykinin is 7.9 on the rat uterus and 7.4 on the guinea pig ileum.

[2] = test system: isolated rat uterus; assay type: cell-based
Experimental: as §1

[3] = test system: rat blood pressure; assay: effects on blood pressure in the anesthetized rat (RBP), intraaortic and intravenous bolus; assay type: in vivo; set-up: RBP-IA: activity class / RBP-IV: activity class: scale not given here; conditions: for RBP-IA: activity class / RBP-IV: activity class / RBP-IA: agonist potency as percent of BK potency / RBP-IV: agonist potency as percent of BK potency: rat blood pressure; for RBP-IA: activity class / RBP-IA: agonist potency as percent of BK potency: intraaortic bolus; for RBP-IV: activity class / RBP-IV: agonist potency as percent of BK potency: intravenous bolus; for % DESTR (metabolic breakdown of BK-like agonists in RBP assay): relative to BK = 100%
Experimental: The in vivo effects of bradykinin antagonists on blood pressure in the anesthetized rat are determined according to the assay described by Roblero, Ryan and Stewart (Res. Commun. Pathol. Pharmacol. 6:207, 1973). The antagonists also produce inhibition of the bradykinin response when injected as a bolus admixture of bradykinin plus antagonist by either the ia or iv route of administration.

[4] = isolated rat uterus, number of tissues in parentheses

With N=C(N)NCCC[C@H](NC(=O)[C@H](Cc1ccccc1)NC(=O)[C@@H](Cc1ccccc1)NC(=O)[C@H](CO)NC(=O)[C@H](Cc1ccccc1)NC(=O)CNC(=O)[C@@H]1CCCN1C(=O)[C@@H]1CCCN1C(=O)[C@H](N)Cc1ccc(Cl)cc1)C(=O)O [Example 2, CDF-Pro-Pro-Gly-Phe-Ser-DPhe-Phe-Arg] (H-[dPhe(4-Cl)]PPGFS[dF]FR-OH) the “pA2 /GPI: activity class” value [1] was 0 and the “pA2 /RUT (antagonist potency)” value [2, 4] was 5.0.
With N=C(N)NCCC[C@H](NC(=O)[C@H](Cc1ccccc1)NC(=O)[C@@H](Cc1ccccc1)NC(=O)[C@H](CO)NC(=O)[C@H](Cc1ccccc1)NC(=O)CNC(=O)[C@@H]1C[C@@H](O)CN1C(=O)[C@@H]1CCCN1C(=O)[C@H](N)Cc1ccc(Cl)cc1)C(=O)O [Example 3, CDF-Pro-Hyp-Gly-Phe-Ser-DPhe-Phe-Arg] (H-[dPhe(4-Cl)]P[Hyp]GFS[dF]FR-OH) the “pA2 /GPI: activity class” value [1] was 0.
N=C(N)NCCC[C@@H](N)C(=O)N[C@H](Cc1ccc(Cl)cc1)C(=O)N1CCC[C@H]1C(=O)N1CCC[C@H]1C(=O)NCC(=O)N[C@@H](Cc1ccccc1)C(=O)N[C@@H](CO)C(=O)N[C@H](Cc1ccccc1)C(=O)N[C@@H](Cc1ccccc1)C(=O)N[C@@H](CCCNC(=N)N)C(=O)O [Example 4, DArg-CDF-Pro-Pro-Gly-Phe-Ser-DPhe-Phe-Arg] (H-[dR][dPhe(4-Cl)]PPGFS[dF]FR-OH) was tested, and the “pA2 /GPI: activity class” value [1] was 0 and the “pA2 /RUT (antagonist potency)” value [2, 4] was 5.4.
In the case of N=C(N)NCCC[C@@H](N)C(=O)N[C@H](Cc1ccc(Cl)cc1)C(=O)N1CCC[C@H]1C(=O)N1C[C@H](O)C[C@H]1C(=O)NCC(=O)N[C@@H](Cc1ccccc1)C(=O)N[C@@H](CO)C(=O)N[C@H](Cc1ccccc1)C(=O)N[C@@H](Cc1ccccc1)C(=O)N[C@@H](CCCNC(=N)N)C(=O)O [Example 5, DArg-CDF-Pro-Hyp-Gly-Phe-Ser-DPhe-Phe-Arg] (H-[dR][dPhe(4-Cl)]P[Hyp]GFS[dF]FR-OH), the “pA2 /GPI: activity class” value [1] is reported as 0 and the “pA2 /RUT (antagonist potency)” value [2, 4] is reported as 5.8.
For N=C(N)NCCC[C@H](NC(=O)[C@H](Cc1ccccc1)NC(=O)[C@@H](Cc1cccs1)NC(=O)[C@H](CO)NC(=O)[C@H](Cc1ccccc1)NC(=O)CNC(=O)[C@@H]1CCCN1C(=O)[C@@H]1CCCN1C(=O)[C@H](N)Cc1ccc(Cl)cc1)C(=O)O [Example 6, CDF-Pro-Pro-Gly-Phe-Ser-DThi-Phe-Arg] (H-[dPhe(4-Cl)]PPGFS[d2Thi]FR-OH), the “pA2 /GPI: activity class” value [1] was 0, the “RBP-IA: activity class” value [3] was 0 and the “RBP-IV: activity class” value [3] was 0.
With N=C(N)NCCC[C@@H](N)C(=O)N1CCC[C@H]1C(=O)N1C[C@H](O)C[C@H]1C(=O)NCC(=O)N[C@@H](Cc1cccs1)C(=O)N[C@@H](CO)C(=O)N[C@H](Cc1ccccc1)C(=O)N[C@@H](Cc1cccs1)C(=O)N[C@@H](CCCNC(=N)N)C(=O)O [Example 8, DArg-Pro-Hyp-Gly-Thi-Ser-DPhe-Thi-Arg] (H-[dR]P[Hyp]G[2Thi]S[dF][2Thi]R-OH) the “pA2 /GPI (antagonist potency)” value ([1]; number of tissues in parentheses) was 5.4 and the “pA2 /RUT (antagonist potency)” value [2] was 5.4.
N=C(N)NCCC[C@H](NC(=O)[C@H](Cc1ccccc1)NC(=O)[C@@H](Cc1ccccc1)NC(=O)[C@H](CO)NC(=O)[C@H](Cc1ccccc1)NC(=O)CNC(=O)[C@@H]1C[C@@H](O)CN1C(=O)[C@@H]1CCCN1C(=O)[C@H](N)Cc1ccc(O)cc1)C(=O)O [Example 9, DTyr-Pro-Hyp-Gly-Phe-Ser-DPhe-Phe-Arg] (H-[dY]P[Hyp]GFS[dF]FR-OH) was tested, and the “pA2 /GPI: activity class” value [1] was 0.
N=C(N)NCCC[C@H](NC(=O)[C@H](Cc1ccccc1)NC(=O)[C@@H](Cc1ccccc1)NC(=O)[C@H](CO)NC(=O)[C@H](Cc1ccccc1)NC(=O)CNC(=O)[C@@H]1C[C@@H](O)CN1C(=O)[C@@H]1CCCN1C(=O)[C@H](N)Cc1ccc(F)cc1)C(=O)O [Example 11, FDF-Pro-Hyp-Gly-Phe-Ser-DPhe-Phe-Arg] (H-[dPhe(4-F)]P[Hyp]GFS[dF]FR-OH) was tested, and the “pA2 /GPI: activity class” value [1] was 0.
With N=C(N)NCCC[C@@H](N)C(=O)N[C@H](Cc1ccc(F)cc1)C(=O)N1CCC[C@H]1C(=O)N1C[C@H](O)C[C@H]1C(=O)NCC(=O)N[C@@H](Cc1ccccc1)C(=O)N[C@@H](CO)C(=O)N[C@H](Cc1ccccc1)C(=O)N[C@@H](Cc1ccccc1)C(=O)N[C@@H](CCCNC(=N)N)C(=O)O [Example 12, DArg-FDF-Pro-Hyp-Gly-Phe-Ser-DPhe-Phe-Arg] (H-[dR][dPhe(4-F)]P[Hyp]GFS[dF]FR-OH) the “pA2 /GPI: activity class” value [1] was 0 and the “pA2 /RUT (antagonist potency)” value [2, 4] was 5.7.
With CC(C)[C@@H](NC(=O)[C@H](N)CCCNC(=N)N)C(=O)N1CCC[C@H]1C(=O)N1C[C@H](O)C[C@H]1C(=O)NCC(=O)N[C@@H](Cc1ccccc1)C(=O)N[C@@H](CO)C(=O)N[C@H](Cc1ccccc1)C(=O)N[C@@H](Cc1ccccc1)C(=O)N[C@@H](CCCNC(=N)N)C(=O)O [Example 16, DArg-DVal-Pro-Hyp-Gly-Phe-Ser-DPhe-Phe-Arg] (H-[dR][dV]P[Hyp]GFS[dF]FR-OH) the “pA2 /GPI: activity class” value [1] was 0, the “RBP-IA: activity class” value [3] was 0 and the “RBP-IV: activity class” value [3] was 0.
For CC[C@@H](C)[C@@H](N)C(=O)N1CCC[C@H]1C(=O)N1C[C@H](O)C[C@H]1C(=O)NCC(=O)N[C@@H](Cc1ccccc1)C(=O)N[C@@H](CO)C(=O)N[C@H](Cc1ccccc1)C(=O)N[C@@H](Cc1ccccc1)C(=O)N[C@@H](CCCNC(=N)N)C(=O)O [Example 17, DIle-Pro-Hyp-Gly-Phe-Ser-DPhe-Phe-Arg] (H-[dI]P[Hyp]GFS[dF]FR-OH), the “pA2 /GPI: activity class” value [1] was 0, the “RBP-IA: activity class” value [3] was 0 and the “RBP-IV: activity class” value [3] was 0.
In the case of CC[C@@H](C)[C@@H](NC(=O)[C@H](N)CCCNC(=N)N)C(=O)N1CCC[C@H]1C(=O)N1C[C@H](O)C[C@H]1C(=O)NCC(=O)N[C@@H](Cc1ccccc1)C(=O)N[C@@H](CO)C(=O)N[C@H](Cc1ccccc1)C(=O)N[C@@H](Cc1ccccc1)C(=O)N[C@@H](CCCNC(=N)N)C(=O)O [Example 18, DArg-DIle-Pro-Hyp-Gly-Phe-Ser-DPhe-Phe-Arg] (H-[dR][dI]P[Hyp]GFS[dF]FR-OH), the “pA2 /GPI: activity class” value [1] is reported as 0, the “RBP-IA: activity class” value [3] is reported as 0 and the “RBP-IV: activity class” value [3] is reported as 0.
For N=C(N)NCCC[C@H](NC(=O)[C@H](Cc1cccs1)NC(=O)[C@@H](Cc1ccccc1)NC(=O)[C@H](CO)NC(=O)[C@H](Cc1cccs1)NC(=O)CNC(=O)[C@@H]1CCCN1C(=O)[C@@H]1CCCN1C(=O)[C@H](N)Cc1ccccc1)C(=O)O [Example 19, DPhe-Pro-Pro-Gly-Thi-Ser-DPhe-Thi-Arg] (H-[dF]PPG[2Thi]S[dF][2Thi]R-OH), the “pA2 /GPI: activity class” value [1] was 0 and the “pA2 /RUT: activity class” value ([2]; isolated rat uterus, not quantitated) was 0.
In the case of N=C(N)NCCC[C@H](NC(=O)[C@H](Cc1cccs1)NC(=O)[C@@H](Cc1ccccc1)NC(=O)[C@H](CO)NC(=O)[C@H](Cc1cccs1)NC(=O)CNC(=O)[C@@H]1CCCN1C(=O)[C@@H]1CCCN1C(=O)[C@@H](Cc1ccc2ccccc2c1)NC(=O)[C@H](CCCCN)NC(=O)[C@@H](N)CCCCN)C(=O)O [Example 24, Lys-Lys-DNal-Pro-Pro-Gly-Thi-Ser-DPhe-Thi-Arg] (H-KK[d2Nal]PPG[2Thi]S[dF][2Thi]R-OH), the “pA2 /GPI: activity class” value [1] is reported as 0.
N=C(N)NCCC[C@@H](N)C(=O)N[C@H](Cc1cccs1)C(=O)N1CCC[C@H]1C(=O)N1C[C@H](O)C[C@H]1C(=O)NCC(=O)N[C@@H](Cc1ccccc1)C(=O)N[C@@H](CO)C(=O)N[C@H](Cc1cccs1)C(=O)N[C@@H](Cc1ccccc1)C(=O)N[C@@H](CCCNC(=N)N)C(=O)O [Example 36, DArg-DThi-Pro-Hyp-Gly-Phe-Ser-DThi-Phe-Arg] (H-[dR][d2Thi]P[Hyp]GFS[d2Thi]FR-OH) was tested, and the “pA2 /GPI: activity class” value [1] was 0.
With CC[C@H](C)[C@H](NC(=O)[C@H](CCCNC(=N)N)NC(=O)[C@H](Cc1ccccc1)NC(=O)[C@@H](Cc1ccccc1)NC(=O)[C@H](CO)NC(=O)[C@H](Cc1ccccc1)NC(=O)CNC(=O)[C@@H]1CCCN1C(=O)[C@@H]1CCCN1C(=O)[C@@H](N)CCCNC(=N)N)C(=O)N[C@@H](Cc1ccc(O)cc1)C(=O)O [Example 63, Arg-Pro-Pro-Gly-Phe-Ser-DPhe-Phe-Arg-Ile-Tyr] (H-RPPGFS[dF]FRIY-OH) the “RBP-IA: agonist potency as percent of BK potency” value [3] was 0.2%, the “RBP-IV: agonist potency as percent of BK potency” value [3] was 2% and the “% DESTR (metabolic breakdown of BK-like agonists in RBP assay)” value [3] was 70%. For the same compound, the “pA2 /RUT: agonist potency as percent of BK potency” value ([2]; isolated rat uterus) was 0.6%.
In the case of CC[C@H](C)[C@H](NC(=O)[C@H](CCCNC(=N)N)NC(=O)[C@H](Cc1cccs1)NC(=O)[C@@H](Cc1ccccc1)NC(=O)[C@H](CO)NC(=O)[C@H](Cc1cccs1)NC(=O)CNC(=O)[C@@H]1CCCN1C(=O)[C@@H]1CCCN1C(=O)[C@@H](N)CCCNC(=N)N)C(=O)N[C@@H](Cc1ccc(O)cc1)C(=O)O [Example 65, Arg-Pro-Pro-Gly-Thi-Ser-DPhe-Thi-Arg-Ile-Tyr] (H-RPPG[2Thi]S[dF][2Thi]RIY-OH), the “RBP-IA: agonist potency as percent of BK potency” value [3] is reported as 0.06%, the “RBP-IV: agonist potency as percent of BK potency” value [3] is reported as 6% and the “% DESTR (metabolic breakdown of BK-like agonists in RBP assay)” value [3] is reported as 0%. The “pA2 /RUT: agonist potency as percent of BK potency” value ([2]; isolated rat uterus) was 0.5%.
